Assay [1] is filed under the species Homo sapiens. As to the kind of experiment: Angiogenic activity in HUVEC12 assessed as induction of cell proliferation at 10 uM after 24 hrs by MTT assay. The class given is functional. (Tetrazolium dyes change colour on reduction, which living cells bring about.)
Assay [2] relates to Chorioallantoic membrane. Nature of the assay: Angiogenic activity in chick embryo chorioallantoic membrane at 10 uL/egg after 2 days. In kind it is functional, tissue-based. Particulars: Gallus gallus.

Molecules are shown by their SMILES. Activity calls are given as the source filed them. The calls are words filed in the database; no cut-off is given here.

As to `O=c1cc(-c2ccccc2)oc2cc(O)cc(O)c12`, the result in assay [1] was Active.
With `O=c1cc(-c2ccccc2)oc2cc(OCCO[N+](=O)[O-])cc(O)c12`, the result in assay [2] and in assay [1] was Active.
As for `O=c1cc(-c2ccccc2)oc2cc(OCCCCCCO[N+](=O)[O-])cc(O)c12`, the outcome in assay [2] and in assay [1] was Active.
With `O=c1cc(-c2ccccc2)oc2cc(OCCCCO[N+](=O)[O-])cc(O)c12`, the result in assay [2] and in assay [1] was Active.

The values above are taken from ChEMBL document CHEMBL1152705, “Synthesis and promotion angiogenesis effect of chrysin derivatives coupled to NO donors” (Bioorg Med Chem Lett, 2009).
